± gives the uncertainty stated by the source.
Assays:
[1] = test system: Klebsiella pneumoniae ATCC 13882; experiment: rate of pH (A557-A630) increase, Gompertz fit (10^-4 s-1); higher = faster ureolysis; extreme values may be limits of the assay
Method: (§1)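 Klebsiella pneumoniae ATCC 13882 (start OD600 0.05) grown in M9U medium with 40 mM urea and phenol red plus inhibitor, in triplicate in 96-well plates. A557 and OD630 were read every 15 min for 24 h. Ureolysis was followed as the pH-related A557-A630: onset time, Gompertz-fit rate and final value. Growth was followed as OD630.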

[2] = test system: Klebsiella pneumoniae ATCC 13882; experiment: final OD630 (growth) after 24 h; higher = more bacterial growth; extreme values may be limits of the assay
Method: as §1

[3] = test system: Klebsiella pneumoniae ATCC 13882; experiment: onset of ureolytic pH increase; higher = more delayed ureolysis (inhibition)
Method: as §1

[4] = test system: Klebsiella pneumoniae ATCC 13882; experiment: final pH-related absorbance (A557-A630) after 24 h (absorbance units); higher = more ureolysis; extreme values may be limits of the assay
Method: as §1

O=S(=O)(O)SSS(=O)(=O)O [Sodium tetrathionate dihydrate]
rate of pH ([1]; 0.1 mM): 3.64 ± 1.1 | rate of pH ([1]; 1 mM): 3.32 ± 1.5 | rate of pH ([1]; 10 mM): 3.97 ± 1.7 | final OD630 ([2]; 0.1 mM): 0.532 ± 0.027 | final OD630 ([2]; 1 mM): 0.541 ± 0.021 | final OD630 ([2]; 10 mM): 0.554 ± 0.021 | onset of ureolytic pH increase ([3]; 0.1 mM): 7.21 ± 0.35 h | onset of ureolytic pH increase ([3]; 1 mM): 7.23 ± 0.367 h | onset of ureolytic pH increase ([3]; 10 mM): 7.17 ± 0.383 h | final pH-related absorbance ([4]; 0.1 mM): 0.569 ± 0.076 | final pH-related absorbance ([4]; 1 mM): 0.492 ± 0.1 | final pH-related absorbance ([4]; 10 mM): 0.5 ± 0.12

N#C[S-].[Na+] [Sodium thiocyanate]
rate of pH ([1]; 0.1 mM): 1.61 ± 0.036 | rate of pH ([1]; 1 mM): 1.6 ± 0.048 | rate of pH ([1]; 10 mM): 0.0522 ± 0.0032 | final OD630 ([2]; 0.1 mM): 0.431 ± 0.003 | final OD630 ([2]; 1 mM): 0.445 ± 0.0004 | final OD630 ([2]; 10 mM): 0.403 ± 0.003 | onset of ureolytic pH increase ([3]; 0.1 mM): 11.25 ± 0.065 h | onset of ureolytic pH increase ([3]; 1 mM): 11.7 ± 0.167 h | onset of ureolytic pH increase ([3]; 10 mM): 12.8 ± 0.317 h | final pH-related absorbance ([4]; 0.1 mM): 0.152 ± 0.002 | final pH-related absorbance ([4]; 1 mM): 0.144 ± 0.0019 | final pH-related absorbance ([4]; 10 mM): 0.123 ± 0.0011

O=S(O)(O)=S [Sodium thiosulfate]
rate of pH ([1]; 0.1 mM): 2.09 ± 0.021 | rate of pH ([1]; 1 mM): 2.11 ± 0.025 | rate of pH ([1]; 10 mM): 2.2095 ± 0.0016 | final OD630 ([2]; 0.1 mM): 0.476 ± 0.0014 | final OD630 ([2]; 1 mM): 0.457 ± 0.0043 | final OD630 ([2]; 10 mM): 0.454 ± 0.011 | onset of ureolytic pH increase ([3]; 0.1 mM): 9.5 ± 0.112 h | onset of ureolytic pH increase ([3]; 1 mM): 9.93 ± 0.0833 h | onset of ureolytic pH increase ([3]; 10 mM): 10.2 ± 0.13 h | final pH-related absorbance ([4]; 0.1 mM): 0.154 ± 0.0011 | final pH-related absorbance ([4]; 1 mM): 0.14 ± 0.0017 | final pH-related absorbance ([4]; 10 mM): 0.142 ± 0.011

NS(=O)(=O)O [Sulfamic acid]
rate of pH ([1]; 0.1 mM): 2.17 ± 0.036 | rate of pH ([1]; 1 mM): 1.96 ± 0.055 | rate of pH ([1]; 10 mM): 0 | final OD630 ([2]; 0.1 mM): 0.506 ± 0.0081 | final OD630 ([2]; 1 mM): 0.515 ± 0.014 | final OD630 ([2]; 10 mM): 0 | onset of ureolytic pH increase ([3]; 0.1 mM): 9.36 ± 0.2 h | onset of ureolytic pH increase ([3]; 1 mM): 8.91 ± 0.118 h | onset of ureolytic pH increase ([3]; 10 mM): > 15 h | final pH-related absorbance ([4]; 0.1 mM): 0.166 ± 0.019 | final pH-related absorbance ([4]; 1 mM): 0.182 ± 0.011 | final pH-related absorbance ([4]; 10 mM): 0

O=C(OC[C@H]1O[C@@H](OC(=O)c2cc(O)c(O)c(OC(=O)c3cc(O)c(O)c(O)c3)c2)[C@H](OC(=O)c2cc(O)c(O)c(OC(=O)c3cc(O)c(O)c(O)c3)c2)[C@@H](OC(=O)c2cc(O)c(O)c(OC(=O)c3cc(O)c(O)c(O)c3)c2)[C@@H]1OC(=O)c1cc(O)c(O)c(OC(=O)c2cc(O)c(O)c(O)c2)c1)c1cc(O)c(O)c(OC(=O)c2cc(O)c(O)c(O)c2)c1 [Tannic acid]
rate of pH ([1]; 0.1 mM): 1.47 ± 0.091 | rate of pH ([1]; 1 mM): 1.282 ± 0.0068 | rate of pH ([1]; 10 mM): 0 | final OD630 ([2]; 0.1 mM): 0.452 ± 0.0032 | final OD630 ([2]; 1 mM): 0.433 ± 0.0003 | final OD630 ([2]; 10 mM): 0 | onset of ureolytic pH increase ([3]; 0.1 mM): 10.1 ± 0.517 h | onset of ureolytic pH increase ([3]; 1 mM): 10.69 ± 0.085 h | onset of ureolytic pH increase ([3]; 10 mM): > 25 h | final pH-related absorbance ([4]; 0.1 mM): 0.129 ± 0.0091 | final pH-related absorbance ([4]; 1 mM): 0.125 ± 0.0013 | final pH-related absorbance ([4]; 10 mM): 0

NC(N)=S [Thiourea]
rate of pH ([1]; 0.1 mM): 2.27 ± 0.21 | rate of pH ([1]; 1 mM): 2.13 ± 0.083 | rate of pH ([1]; 10 mM): 1.94 ± 0.099 | final OD630 ([2]; 0.1 mM): 0.48 ± 0.0071 | final OD630 ([2]; 1 mM): 0.492 ± 0.012 | final OD630 ([2]; 10 mM): 0.483 ± 0.008 | onset of ureolytic pH increase ([3]; 0.1 mM): 6.84 ± 0.3 h | onset of ureolytic pH increase ([3]; 1 mM): 7.06 ± 0.2 h | onset of ureolytic pH increase ([3]; 10 mM): 7.59 ± 0.217 h | final pH-related absorbance ([4]; 0.1 mM): 0.271 ± 0.024 | final pH-related absorbance ([4]; 1 mM): 0.25 ± 0.0002 | final pH-related absorbance ([4]; 10 mM): 0.236 ± 0.014

O=C1C=CC(=O)C=C1 [p-benzoquinone]
rate of pH ([1]; 0.017 mM): 1.59 ± 0.027 | rate of pH ([1]; 0.167 mM): 0 | final OD630 ([2]; 0.017 mM): 0.421 ± 0.011 | final OD630 ([2]; 0.167 mM): 0 | onset of ureolytic pH increase ([3]; 0.017 mM): 11.35 ± 0.0333 h | onset of ureolytic pH increase ([3]; 0.167 mM): > 25 h | final pH-related absorbance ([4]; 0.017 mM): 0.171 ± 0.0039 | final pH-related absorbance ([4]; 0.167 mM): 0

Oc1ccc(Cl)cc1 [p-chlorophenol]
rate of pH ([1]; 0.1 mM): 1.5 ± 0.019 | rate of pH ([1]; 1 mM): 0.0559 ± 0.0036 | rate of pH ([1]; 10 mM): 0 | final OD630 ([2]; 0.1 mM): 0.42 ± 0.0062 | final OD630 ([2]; 1 mM): 0.401 ± 0.0036 | final OD630 ([2]; 10 mM): 0 | onset of ureolytic pH increase ([3]; 0.1 mM): 12.21 ± 0.0417 h | onset of ureolytic pH increase ([3]; 1 mM): 15.6 ± 0.233 h | onset of ureolytic pH increase ([3]; 10 mM): > 15 h | final pH-related absorbance ([4]; 0.1 mM): 0.162 ± 0.0043 | final pH-related absorbance ([4]; 1 mM): 0.09 ± 0.0059 | final pH-related absorbance ([4]; 10 mM): 0

— the supplement of paper PMC7244745
